In patent publication US11241501B2, “Anticancer prodrug for overcoming drug resistance” (Korea University Research and Business Foundation, priority 2018, dated 2022):

Tests used:
[1] = test system: p21^Waf1 and phosphorylated PDH levels; test: Immunoblot assay of p21Waf1 and phosphorylated PDH; format: cell-based, human
Description: HepG2 cells treated with each compound (5 μM, 24 hr) were co-stained with the mitochondrial marker MitoTracker (green). Boxed regions show co-localization of the test compounds and probe within the mitochondria. […] Experiments were carried out in triplicate and the data shown represent means±SD. **p<0.01. […] HepG2 cells were incubated with BNPP (100 μM) for 2 hr prior to C1 treatment. **p<0.01. […] Cleaved caspase-3 and PARP-1 levels were examined to assess apoptosis induction. C, cleaved.
(§1) Immunoblot analyses were performed using antibodies specific for phosphorylated serine 293 PDH-EI (ab92696), p21^Waf1 (sc-397), cleaved PARP (5625), cleaved caspase-3 (9664), COX-IV (4850), and Cytochrome c (4280). They were purchased from Abcam (Cambridge, UK), Santa Cruz Biotechnology (Texas, USA) or Cell Signaling Technology (Massachusetts, USA). Anti-tubulin antibodies were obtained from Sigma-Aldrich (St. Louis, USA). Briefly, cells were washed twice in ice-cold PBS and lysed in a radioimmunoprecipitation assay buffer containing 50 mM Tris/HCl (pH 7.5), 150 mM NaCl, 0.1% sodium dodecyl sulfate (SDS), 1% Triton X-100, 1% sodium deoxycholate, and protease inhibitor mixture. After sonification, the lysate was centrifuged, and the supernatant was recovered and loaded onto a 12% SDS-polyacrylamide gel for electrophoresis.

[2] = test system: HepG2 cells; test: Immunoblot assay of cleaved caspase-3 and PARP-1; format: cell-based, human
Description: as §1

[3] = test system: MCF7 and MCF7/Dox cells; test: Intracellular accumulation, fluorescence assay; format: cell-based, human; conditions: up to 12 hr after treatment
Description: (§2) Fluorescence intensities were measured with SpectraMAX 13. Data represent means±SD. **p<0.01. […] Data represent means±SD. **[…]. […] Data represent the mean±SD (n=3 experimental replicates). *p<0.05, **p<0.01. […] MCF7/Dox cells were treated with C1 or C3 as indicated, and the cytosolic (C) and mitochondrial (M) fractions were subjected to immunoblot assay. COX-IV and tubulin were used as markers for the mitochondria and cytosol fractions, respectively.
Mito-tracker (green) was utilized to show the mitochondria;
To analyze the cellular fluorescence levels upon compound treatment, cells were seeded in plates 1 day before treatment with the compounds. Cells were then treated with each compound for the indicated dose or time course. After the experiment, cells were washed with ice-cold PBS, trypsinized, and centrifuged. The cell pellet was re-suspended in 300 μL of PBS and then analyzed using a multiplate reader (SpectraMAX I3x). The results were normalized according to the number of cells.

[4] = test system: MCF7/Dox cells; test: Intracellular ATP, lactate levels and glucose uptake; format: cell-based, human
Description: as §2
Intracellular ATP levels were measured using an ATP Bioluminescence Assay Kit HSII (Roche Applied Science). Briefly, after the indicated treatment times for the test compound in question, cells were lysed with boiling lysis reagent and the supernatant was collected. […] of luciferin/Luciferase reagents. Luminescence was measured using Luminoskan Ascent (Thermo Scientific). Results were normalized to cell number. Intracellular L(+)-lactate level was measured using a lactate assay kit (BioVision). Cells were suspended with lactate assay buffer and incubated in the presence of the reaction mixture for 30 min. The lactate was quantified by measuring the absorbance at 570 nm using a Bio-Rad 680 microplate reader (Bio-Rad). For the glucose uptake assay, 2×10^5 cells were incubated in the presence of 20 mmol/L of 2-NBDG (2-[N-(7-nitrobenz-2-oxa-1,3-diazol-4-yl)amino]-2-deoxy-d-glucose; N13195; Invitrogen) for 2 h. The cells were re-suspended in cold growth medium and stained with propidium iodide. Samples were maintained on ice and analyzed via flow cytometry (Becton Dickinson).

[5] = test system: MCF7/Dox cells; test: Cytochrome c release from mitochondria, immunoblot; format: cell-based, human
Description: as §2
as §1, with “electrophoresis. […]” for “electrophoresis.”

[6] = test system: MCF7 cell line; test: Cell viability, C1 versus Dox+DCA; format: cell-based, human
Description: (§3) Data represent the mean±SD. *p<0.05. […] Cells were seeded in 24 well plates at 2×10^5 cells per well and were allowed to adhere for at least 24 h, growth medium was replaced with medium containing C1 or its analogues at the indicated concentrations and times, and cell viability was assessed via the WST-1 assay (Roche Diagnostics, Laval, QC, Canada). For the colony formation assay, cells were seeded in 6-well plates. After 24 h, cells were maintained in the presence of each probe or vehicle dimethyl sulfoxide (DMSO) for 10 days. Colonies were fixed with methanol for 10 min and stained with 0.05% crystal violet in 20% ethanol.

[7] = test system: MCF7/Dox cells; test: Cell viability, C1 versus Dox+DCA; format: cell-based, human; conditions: resistant MCF7/Dox cells
Description: as §3

[8] = test system: MCF7/Dox cells; test: Cell death assay, Annexin V flow cytometry; format: cell-based, human; conditions: 5 μM
Description: MCF-7/Dox cells (8×10^5 cells) were seeded in 60 mm dishes and cultured for 24 h. The cells were treated with 5 μM compound C1, C3, DCA and/or doxorubicin for 48 h. After washing and centrifugation, the harvested cells were stained with the Annexin V/PI Apoptosis Detection kit (BD Biosciences, USA) for 1 min at room temperature. The apoptotic cells were then quantified on a FACSCalibur™ flow cytometer and analyzed using the CELLQUEST™ software (BD Biosciences).

[9] = test system: MCF7/Dox xenograft tumors; test: Independent comparative xenograft study of C1-C4; format: in vivo, mice; conditions: n=5 per group, FIG. 23C
Text: (§4) Tumors are shown (right). […] C1 injection led to a 58% reduction in tumor growth, which was statistically greater than the reductions seen in the case of C2 (16%), C3 (9%), C4 (6%) and DMSO (0%) tested under otherwise identical conditions.

[10] = Hepatotoxicity assay, serum ALT and AST; format: in vivo; conditions: mice bearing MCF7/Dox tumors
Description: as §4
Blood samples of each mice were centrifuged at 3,000 rpm for 10 min at 4° C. to produce serum. Then, the activities of ALT and AST in serum were analyzed using the AST and ALT Activity Assay Kits (MAK055, MAK052, Sigma) according to the manufacturer's instructions.

COc1cccc2c1C(=O)c1c(O)c3c(c(O)c1C2=O)C[C@@](O)(C(=O)CO)C[C@@H]3OC1C[C@H](NC(=O)OC(Cc2cn(CCCCCC[P+](c3ccccc3)(c3ccccc3)c3ccccc3)nn2)c2ccc(NC(=O)C(Cl)Cl)cc2)[C@H](O)[C@H](C)O1.[Br-] (stereo partly drawn) [C1]
effect on p21^Waf1 and phosphorylated PDH levels [1]: up- and downregulation of p21^Waf1 and phosphorylated PDH levels | apoptosis-inducing activity (cleaved caspase-3 and PARP-1) [2]: greater apoptosis-inducing activity than C2 | intracellular accumulation in MCF7/Dox versus MCF7 [3]: comparable level in both MCF7 and MCF7/Dox cells | glucose uptake [4]: decreased glucose uptake | intracellular ATP levels [4]: lowered intracellular ATP levels | intracellular lactate levels [4]: dose-dependent reduction of intracellular lactate levels | cytochrome c release, cleavage of caspase-3 and PARP-1, decrease in cell viability [5]: induces cytochrome c release from the mitochondria | reduction in cell viability [6]: comparable reduction in cell viability | cytotoxic effect [7]: appreciable cytotoxic effect | apoptosis by Annexin V flow cytometry [8]: promotes both early and late apoptosis | reduction in tumor growth [9]: 58% | toxicity from ALT and AST levels in blood serum [10]: no significant toxicity
